{"source": "patent US4352880A", "about": "(priority 1979, dated 1982)", "key": {"physchem [1]": {"assay": "physchem", "details": "ta-1538 agar"}, "S. typhimurium TA1535 [2]": {"system": "S. typhimurium TA1535", "assay": "Diffusion bioassay for mutagenicity with microsomal activation (procarcinogens)", "details": "for Cmut (minimal mutagenic concentration): brackets: one standard deviation; for Cmut /co /s: from figure; for Cmut threshold value (mean): diffusion method, metabolic activation, brackets: 90% confidence intervals"}, "[3]": {"assay": "Diffusion bioassay for mutagenicity with microsomal activation (procarcinogens)", "details": "agar plates"}, "S. typhimurium TA1535 [4]": {"system": "S. typhimurium TA1535", "assay": "Homogeneous bioassay with microsomal activation, minimum mutagenic concentration", "details": "metabolic activation, 90% confidence intervals"}, "physchem [5]": {"assay": "physchem", "details": "agar"}, "S. typhimurium TA1535 [6]": {"system": "S. typhimurium TA1535"}, "physchem [7]": {"assay": "physchem", "details": "minimal medium, phosphate buffer, pH 7"}, "S. typhimurium TA1535 [8]": {"system": "S. typhimurium TA1535", "remark": "listed apart in the source"}, "[9]": {"details": "half-lifetime .tau.1/2 from diffusion bioassay"}}, "note": "Several values for one entry are separate records, joined by “and”; a condition that tells them apart may be missing. Equal entries are not always repeated. Where two headings read alike, the source gives them in different places.", "data": [{"smiles": "COc1ccc2nc3cc(Cl)ccc3c(NCCCNCCCl)c2c1", "note": "[ICR-191]", "values": [{"measurement": "half-life", "setting": "physchem [1]", "result": 2.09, "unit": "h"}, {"measurement": "rmut (radius of mutagenic zone)", "setting": "TA-1538; Co 10 mg/ml", "result": 0.73, "unit": "cm"}, {"measurement": "rmut (radius of mutagenic zone)", "setting": "TA-1538; Co 100 mg/ml", "result": 1.16, "unit": "cm"}, {"measurement": "rmut (radius of mutagenic zone)", "setting": "TA-1538; Co 1000 mg/ml", "result": 1.52, "unit": "cm"}]}, {"smiles": "O=NN1CCOCC1", "note": "[NM, N-nitrosomorpholine]", "values": [{"measurement": "rmut (radius of mutagenic zone)", "setting": "S. typhimurium TA1535 [2]; 0.25 μl/disc, R = 4.25, TA 1535", "result": "1.31 ± 0.12 cm and 1.31 ± 0.1 cm"}, {"measurement": "rmut /R", "setting": "S. typhimurium TA1535 [2]; 0.25 μl, co /s 0.29 mg/ml, R = 4.25 cm", "result": "0.3 ± 0.02"}, {"measurement": "Cmut (minimal mutagenic concentration)", "setting": "S. typhimurium TA1535 [2]; 0.25 μl, co /s 0.29 mg/ml", "result": "0.64(0.436, 0.785) μg/ml"}, {"measurement": "Cmut /co /s", "setting": "S. typhimurium TA1535 [2]; 0.25 μl, co /s 0.29 mg/ml", "result": "2.2 × 10^-3"}, {"measurement": "rmut (radius of mutagenic zone)", "setting": "S. typhimurium TA1535 [2]; 2.5 μl/disc, R = 4.25, TA 1535", "result": "2.25 ± 0.12", "unit": "cm"}, {"measurement": "rmut /R", "setting": "S. typhimurium TA1535 [2]; 2.5 μl, co /s 0.91 mg/ml, R = 4.25 cm", "result": "0.52 ± 0.02"}, {"measurement": "Cmut (minimal mutagenic concentration)", "setting": "S. typhimurium TA1535 [2]; 2.5 μl, co /s 0.91 mg/ml", "result": "0.699(0.465, 0.902) μg/ml"}, {"measurement": "Cmut /co /s", "setting": "S. typhimurium TA1535 [2]; 2.5 μl, co /s 0.91 mg/ml", "result": "2.4 × 10^-4"}, {"measurement": "rmut (radius of mutagenic zone)", "setting": "S. typhimurium TA1535 [2]; 25 μl/disc, R = 4.25, TA 1535", "result": "3.6 ± 0.12 cm and 3.6 ± 0.3 cm"}, {"measurement": "rmut /R", "setting": "S. typhimurium TA1535 [2]; 25 μl, co /s 29.1 mg/ml, R = 4.25 cm", "result": "0.84 ± 0.07"}, {"measurement": "Cmut (minimal mutagenic concentration)", "setting": "S. typhimurium TA1535 [2]; 25 μl, co /s 29.1 mg/ml", "result": "0.276(0.119, 0.505) μg/ml"}, {"measurement": "Cmut /co /s", "setting": "S. typhimurium TA1535 [2]; 25 μl, co /s 29.1 mg/ml", "result": "9.5 × 10^-6"}, {"measurement": "Cmut threshold value (mean)", "setting": "S. typhimurium TA1535 [2]", "result": "0.54(0.23, 0.80) μg/ml"}, {"measurement": "half-life", "setting": "[3]", "result": 6, "unit": "h"}, {"measurement": "C mut^hom threshold value", "setting": "S. typhimurium TA1535 [4]", "result": "0.7 ± 3.6"}]}, {"smiles": "O=NN1CCCC1", "note": "[NP, nitrosopyrrolidine]", "values": [{"measurement": "rmut (radius of mutagenic zone)", "setting": "S. typhimurium TA1535 [2]; 0.25 μl/disc, R = 4.25 cm, 3 days", "result": "1.6 ± 0.18", "unit": "cm"}, {"measurement": "Cmut (minimal mutagenic concentration)", "setting": "S. typhimurium TA1535 [2]; 0.25 μl, co /s 0.27 mg/ml", "result": "0.233(0.143, 0.344) μg/ml"}, {"measurement": "rmut (radius of mutagenic zone)", "setting": "S. typhimurium TA1535 [2]; 2.5 μl/disc, R = 4.25 cm, 3 days", "result": "2.5 ± 0.28", "unit": "cm"}, {"measurement": "Cmut (minimal mutagenic concentration)", "setting": "S. typhimurium TA1535 [2]; 2.5 μl, co /s 2.71 mg/ml", "result": "0.233(0.125, 0.449) μg/ml"}, {"measurement": "rmut (radius of mutagenic zone)", "setting": "S. typhimurium TA1535 [2]; 10 μl/disc, R = 4.25 cm, 3 days", "result": "3.43 ± 0.32 cm and 3.4 ± 0.32 cm"}, {"measurement": "Cmut (minimal mutagenic concentration)", "setting": "S. typhimurium TA1535 [2]; 10 μl, co /s 10.85 mg/ml", "result": "0.097(0.048, 0.212) μg/ml"}, {"measurement": "rmut (radius of mutagenic zone)", "setting": "S. typhimurium TA1535 [2]; 25 μl/disc, R = 4.25 cm, 3 days", "result": "3.7 ± 0.31", "unit": "cm"}, {"measurement": "Cmut (minimal mutagenic concentration)", "setting": "S. typhimurium TA1535 [2]; 25 μl, co /s 27.1 mg/ml", "result": "0.108(0.082, 0.25) μg/ml"}, {"measurement": "Cmut threshold value (mean)", "setting": "S. typhimurium TA1535 [2]", "result": "0.17(0.10, 0.37) μg/ml"}, {"measurement": "half-life", "setting": "[3]", "result": 5.1, "unit": "h"}, {"measurement": "C mut^hom threshold value", "setting": "S. typhimurium TA1535 [4]", "result": "0.58 ± 4.8"}]}, {"smiles": "CCOS(C)(=O)=O", "note": "[EMS, ethyl-methane-sulfonate]", "values": [{"measurement": "half-life", "setting": "physchem [5]; .tau.1/2 (Table 16)", "result": 14.5, "unit": "h"}, {"measurement": "Cmut threshold value (mean)", "setting": "S. typhimurium TA1535 [6]", "result": "20.3(13.17, 26.97) μg/ml"}, {"measurement": "half-life", "setting": "physchem [7]", "result": 13.8, "unit": "h"}, {"measurement": "C mut^hom threshold value", "setting": "S. typhimurium TA1535 [8]", "result": "16.85 ± 10.85"}]}, {"smiles": "CN(N=O)C(N)=O", "note": "[MNU, N-Methyl-N-nitrosourea]", "values": [{"measurement": "half-life", "setting": "physchem [5]; [9]", "result": 0.628, "unit": "h"}, {"measurement": "Cmut threshold value (mean)", "setting": "S. typhimurium TA1535 [6]", "result": "0.27(0.13, 0.45) μg/ml"}, {"measurement": "half-life", "setting": "physchem [7]", "result": 0.599, "unit": "h"}, {"measurement": "C mut^hom threshold value", "setting": "S. typhimurium TA1535 [8]", "result": "0.116 ± 2.52"}]}, {"smiles": "CC(=O)OCN(C)N=O", "note": "[AcDMN, Acetoxydimethylnitrosoamine]", "values": [{"measurement": "half-life", "setting": "physchem [5]; .tau.1/2 Parametrically", "result": 34.1, "unit": "h"}, {"measurement": "half-life", "setting": "physchem [5]; [9]", "result": 19.1, "unit": "h"}, {"measurement": "Cmut threshold value (mean)", "setting": "S. typhimurium TA1535 [6]", "result": "1.7(1.07, 3.53) μg/ml"}, {"measurement": "half-lifetime .tau.1/2 from diffusion bioassay", "setting": "S. typhimurium TA1535 [6]; agar", "result": 34.5, "unit": "h"}, {"measurement": "half-life", "setting": "physchem [7]", "result": 30.4, "unit": "h"}, {"measurement": "C mut^hom threshold value", "setting": "S. typhimurium TA1535 [8]", "result": "1.01 ± 1.48"}]}, {"smiles": "CC(=O)Nc1ccc2c(c1)Cc1ccccc1-2", "note": "[2-AAF, a-acetyl amino fluorene]", "values": [{"measurement": "half-life", "setting": "physchem [1]", "result": 0.446, "unit": "h"}]}]}
